In PMC8883573, “New Insights Into the Function of Flavohemoglobin in Mycobacterium tuberculosis: Role as a NADPH-Dependent Disulfide Reductase and D-Lactate-Dependent Mycothione Reductase” (Frontiers in Cellular and Infection Microbiology, 2022):

Tests used:
trxB = trxB (Mycobacterium tuberculosis, UniProt P9WHH1); assay: DTNB reduction, absorbance at […] nm; assay type: biochemical; conditions: 5 mM DTNB, 250 µM NADPH, 100 mM potassium phosphate pH 7.0, 2 mM EDTA, 25 °C
[1] = system: O=C(O)c1cc(SSc2ccc([N+](=O)[O-])c(C(=O)O)c2)ccc1[N+](=O)[O-]; assay: purified protein; assay type: biochemical, Mycolicibacterium smegmatis; conditions: pH 7.0

Chain of trxB (P9WHH1 2-335): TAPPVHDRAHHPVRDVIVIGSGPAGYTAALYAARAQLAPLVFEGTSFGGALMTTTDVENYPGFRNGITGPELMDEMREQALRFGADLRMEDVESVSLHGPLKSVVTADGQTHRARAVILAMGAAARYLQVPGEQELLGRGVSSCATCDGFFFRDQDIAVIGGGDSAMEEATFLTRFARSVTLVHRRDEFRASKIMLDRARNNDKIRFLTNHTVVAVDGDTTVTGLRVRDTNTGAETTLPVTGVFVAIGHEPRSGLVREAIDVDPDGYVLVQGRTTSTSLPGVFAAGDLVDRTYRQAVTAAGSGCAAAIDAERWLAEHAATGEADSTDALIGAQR

O=C(O)c1cc(SSc2ccc([N+](=O)[O-])c(C(=O)O)c2)ccc1[N+](=O)[O-] [DTNB, 5,5’-dithiobis-(2-nitrobenzoic acid)]
DTNB reduction, absorbance at 412 nm (trxB): NADPH-dependent reduction of DTNB by MtbFHb, MsFHbII, and trxB

NC(=O)C1=CN([C@@H]2O[C@H](COP(=O)(O)OP(=O)(O)OC[C@H]3O[C@@H](n4cnc5c(N)ncnc54)[C@H](OP(=O)(O)O)[C@@H]3O)[C@@H](O)[C@H]2O)C=CC1 [NADPH]
DTNB reduction, absorbance at 412 nm (trxB; electron donor for DTNB reduction): NADPH-dependent reduction of DTNB by MtbFHb, MsFHbII, and trxB

MsFHbII (Mycolicibacterium smegmatis MC2 155)
Km [1]: 93.7 ± 7.6 µM
